System: Atoh1 expression in mouse cerebellar neural precursor cells
Assay: Atoh1 induction assay in mouse cerebellar neural precursor cells (NPCs), Atoh1-GFP reporter
Assay type: cell-based
Details: 10 doses 50 μM to 200 nM, 72 hours treatment, DMSO control = 1, more than 5 considered significant, read-out: fold difference (maximum fold difference of GFP average intensity in cell nuclei over the DMSO control)
Procedure: Compounds of the present disclosure were assessed for their ability to increase the Atoh1 expression in mouse cerebellar neural precursor cells. The ability of compounds of the present disclosure to induce new hair cell formation was assessed in ex vivo hair cell induction assay using 6-day-postnatal mouse cochlea explants with hair cell damage.
Atoh1 Induction Assay in Mouse Cerebellar Neural Precursor Cells (NPCs)
Atoh1 induction assay was conducted with in vitro cultured cerebellar neural precursor cells isolated from neonatal transgenic Atoh1-GFP mice. Atoh1 expression is mainly regulated by the enhancer, and the nuclear GFP was driven by the cloned enhancer sequence at 3′ of Atoh1 which had high conservation among mammalians. So Atoh1 induction could be reflected by GFP activation in cerebellar neural precursor cells (Helms et al., Development 2000; 127: 1185-1196; Lumpkin et al., Gene Expression Patterns 2003; 3: 389-395). Postnatal 3 days pups were dissected for cerebellum tissue isolation. The cerebellum tissue was cut into small pieces, and dissociated with 0.05% Trypsin for about 10 minutes at 37° C., and then filtered with a 70 uM cell strainer. The cells were cultured as neuropsheres for the first 2 days in ultra-low attachment dish/well-plate with DMEM/F12+1% N2 &2% B27 with 1% P/S, 20 ng/ml rhFGF2 and 20 ng/ml rhEGF (R&D Systems). Then the spheres were plated to the matrigel (1:30 diluted in DMEM/F12)-coated tissue culture dish for monolayer culture. After 4.5-5.5 days culture in vitro (DIV), cells were dissociated with 0.05% trypsin into single cells, and frozen after cell number calculation.
The cerebellar neural precursor cells (NPCs) were re-thawed from stock and cultured for another 2 days before used for Atoh1 induction assay. On the first day of assay, NPCs were seeded into matrigel-coated 384 well plates (Black view-plate, PE) at 2500 cells/well. After over-night culture, the NPCs were treated with representative compounds of the present disclosure with 1:2 serial dilutions for 10 doses, from 50 μM to 200 nM, with DMSO as negative control. After 72 hours treatment without medium change, the cells were fixed with 4% formalin for staining. Assay plates were stained with GFP antibody (Abcam, #13970, 1:1000) to amplify endogenous GFP signal and then read by Cellomics.

Row | SMILES | maximal fold induction
1 | O=C(NCCCCCN1CCNC(c2ccccc2)C1)c1cc(-c2cccs2)on1 (stereo not shown) [Example 1, N-(5-(3-Phenylpiperazin-1-yl)pentyl)-5-(thiophen-2-yl)isoxazole-3-carboxamide] | 22.4
2 | CC(C)(C)OC(=O)N1CCN(CCCCCNC(=O)c2cc(-c3cccs3)on2)CC1 [Example 2, tert-Butyl 4-(5-(5-(thiophen-2-yl)isoxazole-3-carboxamido)pentyl)piperazine-1-carboxylate] | 35.4
3 | O=C(NCCCCCN1CCNCC1)c1cc(-c2cccs2)on1 [Example 3, N-(5-(Piperazin-1-yl)pentyl)-5-(thiophen-2-yl)isoxazole-3-carboxamide] | 21
4 | O=C(NCCCCCN1CC2CC1CN2)c1cc(-c2cccs2)on1 (stereo not shown) [Example 4, N-(5-(2,5-Diazabicyclo[2.2.1]heptan-2-yl)pentyl)-5-(thiophen-2-yl)isoxazole-3-carboxamide] | 30.7
5 | C[C@@H]1CNCCN1CCCCCNC(=O)c1cc(-c2cccs2)on1 [Example 5, (R)—N-(5-(2-Methylpiperazin-1-yl)pentyl)-5-(thiophen-2-yl)isoxazole-3-carboxamide] | 32.5
6 | CC(C)C[C@H]1CN(CCCCCNC(=O)c2cc(-c3cccs3)on2)CCN1 [Example 6, (S)—N-(5-(3-isobutylpiperazin-1-yl)pentyl)-5-(thiophen-2-yl)isoxazole-3-carboxamide] | 9
7 | O=C(NCCCCCN1CCCC1)c1cc(-c2cccs2)on1 [Example 7, N-(5-(Pyrrolidin-1-yl)pentyl)-5-(thiophen-2-yl)isoxazole-3-carboxamide] | 31
8 | CN1CC2CCC(C1)N2CCCCCNC(=O)c1cc(-c2cccs2)on1 [Example 13, N-(5-(3-Methyl-3,8-diazabicyclo[3.2.1]octan-8-yl)pentyl)-5-(thiophen-2-yl)isoxazole-3-carboxamide] | 23
9 | CC(=O)NC1CN(CCCCCNC(=O)c2cc(-c3cccs3)on2)C1 [Example 16, N-(5-(3-Acetamidoazetidin-1-yl)pentyl)-5-(thiophen-2-yl)isoxazole-3-carboxamide] | 25.3
10 | CNC(=O)NC1CN(CCCCCNC(=O)c2cc(-c3cccs3)on2)C1 [Example 18, N-(5-(3-(3-Methylureido)azetidin-1-yl)pentyl)-5-(thiophen-2-yl)isoxazole-3-carboxamide] | 17.6
11 | CS(=O)(=O)NC1CN(CCCCCNC(=O)c2cc(-c3cccs3)on2)C1 [Example 19, N-(5-(3-(Methylsulfonamido)azetidin-1-yl)pentyl)-5-(thiophen-2-yl)isoxazole-3-carboxamide] | 31.7
12 | O=C(NC1CN(CCCCCNC(=O)c2cc(-c3cccs3)on2)C1)OCCO [Example 20, 2-Hydroxyethyl (1-(5-(5-(thiophen-2-yl)isoxazole-3-carboxamido)pentyl)azetidin-3-yl)carbamate] | 29.4
13 | N#CCCOC(=O)NC1CN(CCCCCNC(=O)c2cc(-c3cccs3)on2)C1 [Example 21, 2-Cyanoethyl (1-(5-(5-(thiophen-2-yl)isoxazole-3-carboxamido)pentyl)azetidin-3-yl)carbamate] | 13
14 | CS(=O)(=O)NC1CN(CCCCCNC(=O)c2cc(-c3ccc(F)cc3)on2)C1 [Example 22, 5-(4-Fluorophenyl)-N-(5-(3-(methylsulfonamido)azetidin-1-yl)pentyl)isoxazole-3-carboxamide] | 25.5
15 | CNC(=O)NC1CN(CCCCCNC(=O)c2cc(-c3ccc(F)cc3)on2)C1 [Example 23, 5-(4-Fluorophenyl)-N-(5-(3-(3-methylureido)azetidin-1-yl)pentyl)isoxazole-3-carboxamide] | 25.7
16 | COC(=O)N1CCN(CCCCCNC(=O)c2cc(-c3cccs3)on2)CC1 [Example 24, Methyl 4-(5-(5-(thiophen-2-yl)isoxazole-3-carboxamido)pentyl)piperazine-1-carboxylate] | 24
